Among the test systems are KM12; EKVX; UACC-62; MDA-N; OVCAR-8; OVCAR-4; OVCAR-3; SN12C; SR; MOLT-4; OVCAR-5; ACHN; PC-3; T47D; CCRF-CEM; A549; HOP-92; SK-MEL-28; SW-620; LOX IMVI.
Holding throughout (test): NCI tumour cell line growth inhibition, 48 h

Molecules are shown by their SMILES.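 A five-concentration, 48-hour dose response in 96-well plates underlies each endpoint, interpolated linearly between surrounding concentrations. GI50 = concentration required for 50% inhibition of growth.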 Activity calls are given as the source filed them. Cut-off read from the data, not from the text of the source: active = GI50 up to about 1.1 µM and inactive = higher.

For `c1ccc(-c2cc(-c3cc(-c4ccccc4)[nH]n3)[nH]n2)cc1`, the GI50 in the assay on KM12, in the assay on EKVX, with UACC-62, in the assay with MDA-N, with OVCAR-8 and with OVCAR-4 was > 100 µM (inactive) throughout. In addition, the GI50 with OVCAR-3, in the assay on SN12C, with SR, in the assay on MOLT-4, in the assay on OVCAR-5 and in the assay with ACHN was > 100 µM (inactive) in each case. The GI50 with PC-3, in the assay with T47D, in the assay on CCRF-CEM and with A549 was > 100 µM (inactive) in each case.

As for `COC(=O)c1onc(C2OC(C)(C)OC2C(O)COC(c2ccccc2)(c2ccccc2)c2ccccc2)c1C(=O)OC` (stereo not given), the GI50 in the assay with KM12 was > 100 µM (inactive); in the assay with EKVX it was 41.9 µM (inactive); in the assay with UACC-62, 43.6 µM (inactive); with HOP-92 it was > 100 µM (inactive); in the assay on MDA-N, > 100 µM (inactive); in the assay with OVCAR-8, > 100 µM (inactive). Moreover, the GI50 is > 100 µM (inactive) in the assay with OVCAR-4; 87.5 µM (inactive) with OVCAR-3; > 100 µM (inactive) with SN12C; 84.3 µM (inactive) in the assay with SR; 29.4 µM (inactive) in the assay with MOLT-4; > 100 µM (inactive) in the assay with SK-MEL-28. The GI50 in the assay with OVCAR-5 was > 100 µM (inactive); in the assay on ACHN, > 100 µM (inactive); with PC-3, 44.7 µM (inactive); with T47D, > 100 µM (inactive); in the assay on SW-620, > 100 µM (inactive); with CCRF-CEM, > 100 µM (inactive). Also, the GI50 in the assay on A549 was > 100 µM (inactive).

Regarding `C1=C(c2ccccc2)Nc2nnnn2C1c1ccccc1` (stereo not given), the GI50 is 13.5 µM (inactive) in the assay with KM12; 46.2 µM (inactive) in the assay with UACC-62; 17.3 µM (inactive) with LOX IMVI; 20.1 µM (inactive) with MDA-N; 34.9 µM (inactive) in the assay on OVCAR-8; > 100 µM (inactive) in the assay on OVCAR-3. Further, the GI50 was 71.3 µM (inactive) in the assay with SN12C; 12.1 µM (inactive) in the assay with SR; 22 µM (inactive) in the assay on MOLT-4; 93.3 µM (inactive) with OVCAR-5; 23.6 µM (inactive) with ACHN; 53.2 µM (inactive) in the assay on PC-3. Further, the GI50 in the assay on T47D was 47.1 µM (inactive); in the assay on SW-620, 22.1 µM (inactive); with CCRF-CEM, 0.0125 µM (active); in the assay on A549 it was 44.5 µM (inactive).

Turning to `C#CCOCn1ccc(=O)[nH]c1=O`, the GI50 in the assay with KM12, with EKVX, in the assay with UACC-62, in the assay on LOX IMVI, in the assay on MDA-N and with OVCAR-8 was > 100 µM (inactive) each time. The GI50 with OVCAR-4, in the assay on SN12C, with SR, in the assay on MOLT-4, in the assay on SK-MEL-28 and in the assay with OVCAR-5 was > 100 µM (inactive) throughout. The GI50 in the assay with ACHN, with PC-3, in the assay on T47D, in the assay with SW-620, with CCRF-CEM and in the assay with A549 was > 100 µM (inactive) in each case.

Turning to `Cc1cccc(C[C@@]2(SCc3ccccc3)C(C)(C)[C@@H]3CC[C@@]2(C)C3)n1`, the GI50 in the assay on KM12 is 16.4 µM (inactive); with EKVX, 17.6 µM (inactive); in the assay with UACC-62 it was 13.7 µM (inactive); in the assay with HOP-92, 14.3 µM (inactive); with LOX IMVI, 16.6 µM (inactive); in the assay with MDA-N, 24.5 µM (inactive). Moreover, the GI50 with OVCAR-8 is 16.5 µM (inactive); in the assay on OVCAR-3, 15.6 µM (inactive); in the assay with SN12C it was 16.3 µM (inactive); in the assay on SR it was 14.6 µM (inactive); with MOLT-4, 12.6 µM (inactive); in the assay with SK-MEL-28, 19.5 µM (inactive). Moreover, the GI50 was 18 µM (inactive) with OVCAR-5; 15.5 µM (inactive) with ACHN; 20 µM (inactive) with PC-3; 7.26 µM (inactive) in the assay on T47D; 15 µM (inactive) in the assay on SW-620; 12.9 µM (inactive) in the assay with CCRF-CEM. In addition, the GI50 in the assay with A549 is 21.9 µM (inactive).

For the compound `CCC1(COC(NC(=O)c2ccccc2)(C(F)(F)F)C(F)(F)F)COC1`, the GI50 in the assay on EKVX, in the assay with LOX IMVI, in the assay with MDA-N, with OVCAR-8, with SN12C and with SR was > 100 µM (inactive) throughout. The GI50 is 52.4 µM (inactive) in the assay on MOLT-4; > 100 µM (inactive) in the assay with SK-MEL-28; > 100 µM (inactive) in the assay with OVCAR-5; 65.6 µM (inactive) with ACHN; > 100 µM (inactive) with PC-3; > 100 µM (inactive) in the assay on T47D. Further, the GI50 with SW-620, in the assay with CCRF-CEM and with A549 was > 100 µM (inactive) throughout.

For the compound `CCCCCC#CCOC(=O)C(=[N+]=[N-])P(=O)(c1ccccc1)c1ccccc1`, the GI50 in the assay with KM12, in the assay on EKVX, in the assay on UACC-62, with HOP-92, with LOX IMVI and in the assay with MDA-N was > 10 µM (inactive) each time. Moreover, the GI50 in the assay on OVCAR-8, with OVCAR-3, in the assay on SN12C, in the assay on SR, with MOLT-4 and with SK-MEL-28 was > 10 µM (inactive) in each case. The GI50 with OVCAR-5, with ACHN, with PC-3, in the assay on T47D, with SW-620 and in the assay with A549 was > 10 µM (inactive) in each case.

Regarding `Cc1cc2c(c(C)c1O)C(C)(C)CN2C(=O)C(C)(C)C`, the GI50 in the assay on KM12 was > 100 µM (inactive); with EKVX it was > 100 µM (inactive); in the assay with UACC-62 it was > 100 µM (inactive); in the assay on HOP-92 it was 20 µM (inactive); in the assay with LOX IMVI, > 100 µM (inactive); with MDA-N it was > 100 µM (inactive). Moreover, the GI50 with OVCAR-8 was > 100 µM (inactive); in the assay on OVCAR-4, 54.1 µM (inactive); in the assay on OVCAR-3 it was 14.4 µM (inactive); in the assay with SN12C, > 100 µM (inactive); in the assay with MOLT-4 it was 59.4 µM (inactive); with SK-MEL-28, > 100 µM (inactive). Further, the GI50 is > 100 µM (inactive) with OVCAR-5; > 100 µM (inactive) in the assay with ACHN; 46.3 µM (inactive) in the assay with PC-3; 56.5 µM (inactive) in the assay with T47D; > 100 µM (inactive) in the assay on SW-620; 77.6 µM (inactive) in the assay with CCRF-CEM. Besides, in the assay on A549, the GI50 was > 100 µM (inactive).

Take `C=C(C)[C@@H]1CC[C@@]2(C)[C@H]1[C@H]1CCC3[C@@]4(C)CC[C@H](O)C(C)(C)[C@@H]4CC[C@@]3(C)[C@]1(C)C[C@@H]2O` (stereo not given in full) [CALENDULADIOL]: the GI50 in the assay with KM12 was 39.4 µM (inactive); with EKVX, 33.7 µM (inactive); in the assay with HOP-92, 92.3 µM (inactive); in the assay with LOX IMVI, 46.2 µM (inactive); in the assay with MDA-N, 43 µM (inactive); with OVCAR-8, 41.3 µM (inactive). The GI50 in the assay with OVCAR-3 was 52.1 µM (inactive); in the assay on SN12C it was 87.9 µM (inactive); in the assay on SR, 28.4 µM (inactive); in the assay with MOLT-4, 11.2 µM (inactive); in the assay on SK-MEL-28 it was > 100 µM (inactive); with OVCAR-5, 63.2 µM (inactive). Moreover, the GI50 with ACHN was 21.9 µM (inactive); in the assay with PC-3 it was 39.4 µM (inactive); in the assay on T47D it was > 100 µM (inactive); in the assay with SW-620 it was 41.9 µM (inactive); with CCRF-CEM it was 19.2 µM (inactive); in the assay with A549, 11.1 µM (inactive).

Turning to `Cc1nn(C)c2nc3ccc(Cl)cc3c(-c3ccccc3)c12`, the GI50 with KM12, in the assay on EKVX, in the assay with UACC-62, in the assay on HOP-92, with MDA-N and in the assay with OVCAR-8 was > 100 µM (inactive) each time. Also, the GI50 with OVCAR-4, with OVCAR-3, with SN12C, in the assay on SR, in the assay with MOLT-4 and with SK-MEL-28 was > 100 µM (inactive) each time. Also, the GI50 is 95.3 µM (inactive) in the assay with OVCAR-5; > 100 µM (inactive) in the assay on ACHN; > 100 µM (inactive) with PC-3; > 100 µM (inactive) in the assay with T47D; > 100 µM (inactive) in the assay with SW-620; > 100 µM (inactive) in the assay with CCRF-CEM. In the assay on A549, the GI50 was 79.6 µM (inactive).

`COc1cccc(-c2cc(O)c3c(C)ccnc3n2)c1`: the GI50 was 0.0257 µM (active) in the assay on KM12; 0.225 µM (active) in the assay on EKVX; 0.0267 µM (active) with UACC-62; 0.0625 µM (active) with LOX IMVI; < 0.01 µM (active) with MDA-N; 0.0646 µM (active) in the assay on OVCAR-8. Besides, the GI50 is 18 µM (inactive) with OVCAR-4; 0.0186 µM (active) in the assay with OVCAR-3; 0.0655 µM (active) with SN12C; < 0.01 µM (active) with SR; 0.0407 µM (active) in the assay on MOLT-4; 0.0748 µM (active) in the assay on OVCAR-5. Besides, the GI50 with ACHN was 0.0483 µM (active); in the assay on PC-3 it was 0.0223 µM (active); with T47D it was 49 µM (inactive); in the assay on SW-620, < 0.0177 µM (active); with CCRF-CEM it was 0.029 µM (active); with A549, 0.0518 µM (active).
